Target: human aquaporin 9 (Homo sapiens (Human), UniProt O43315)
Assay: Calcein quenching fluostar assay (inhibition of human aquaporin 9)
Assay type: cell-based
Settings: Human AQP9 cell line; example compounds used as 1 mM stock solutions in DMSO
Protocol: Calcein Quenching Fluostar Assay
A calcein quenching fluostar assay was performed in order to investigate the biological activity of the newly synthesized examples 1 to 57. This type of assay is disclosed in J. Biol. Chem., 2011, 286, 44319-44325 and Am. J. Physiol. Renal Physiol. (2010), 298, F224-230.
1) Two days prior to commencement of the assay, seed 10,000 cells/well of 96 well black clear bottom plate (Greiner Poly-lysin plate). A 1:1 mix of Dulbecco's Modified Eagle's Medium: Nutrient Mixture F-12 (DMEM: F12) was obtained from Gibco. Tetracycline stock of 5 mg/ml in 96% ethanol is used. Medium: DMEM/F12/10% Donor Bovine Serum, Human AQP9 cell line+1:270,000 tetracyclin, mouse AQP9 cell line+1:2,700,000 tetracycline.
2) Day of assay: Flick/slam off the medium and add 50 μl/well of loading solution: 5 ml DMEM/F12/10% Donor Bovine Serum, 25 μl Calcein AM—from freshly dissolved aliquot in 50 μl DMSO (VWR #734-1434), and 100 μl Probenecid.
3) Incubate the well for 90 minutes at 37° C.
4) Perform one wash with 75 μl wash buffer.
5) Add 75 μl of an example compound prepared in wash buffer per well.
Example compounds are prepared in 500 μl U bottom PP plates (NUNC). 2.7 μl Substance in DMSO are added to row A; 180 μl of wash buffer+1% DMSO are added to rows B—H. 90 μl from row A are transferred and mixed with all other wells (up to row G) to make a 3-fold dilution series.
6) Assay in FLUOstar Optima at 25° C. Settings buffer addition at 135 μl/seconds, add 75 μl/well, record time course for 30 seconds, add sucrose buffer 3.6 seconds into recording.
7) Normalization to initial in Excel.
8) Fit to “exponential decay” function in GraphPad Prism 5.0, then arrange half live shrinking values according to wells and fit dose-response curves.

human aquaporin 9, sequence (O43315 whole entry): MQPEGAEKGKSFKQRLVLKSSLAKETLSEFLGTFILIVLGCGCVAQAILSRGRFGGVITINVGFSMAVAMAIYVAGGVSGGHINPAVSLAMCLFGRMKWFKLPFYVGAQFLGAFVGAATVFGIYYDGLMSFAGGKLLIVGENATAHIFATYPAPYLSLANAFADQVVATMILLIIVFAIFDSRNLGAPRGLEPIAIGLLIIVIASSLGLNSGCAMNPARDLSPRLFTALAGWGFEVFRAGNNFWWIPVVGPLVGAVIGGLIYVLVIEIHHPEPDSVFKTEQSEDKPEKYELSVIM

| EC50 | pEC50 in the inhibition of human aquaporin 9 | Compound |
| --- | --- | --- |
| 37 nM |  | CCn1c(SCC(=O)Nc2nnc(-c3ccc(OCCOC)cc3)s2)nnc1C(C)C [Example 31, 2-{[4-ethyl-5-(propan-2-yl)-4H-1,2,4-triazol-3-yl]sulfanyl}-N-{5-[4-(2-methoxyethoxy)phenyl]-1,3,4-thiadiazol-2-yl}acetamide] |
| 43 nM |  | CCc1nnc(SCC(=O)Nc2nnc(-c3ccc(C#N)cc3)s2)n1CC [Example 32, N-[5-(4-cyanophenyl)-1,3,4-thiadiazol-2-yl]-2-[(4,5-diethyl-4H-1,2,4-triazol-3-yl)sulfanyl]acetamide] |
| 119 nM |  | CCc1nnc(SCC(=O)Nc2nnc(-c3ccc(C(F)(F)F)cc3)s2)n1CC [Example 33, 2-[(4,5-diethyl-4H-1,2,4-triazol-3-yl)sulfanyl]-N-[5-(4-(trifluoromethyl)phenyl)-1,3,4-thiadiazol-2-yl]acetamide] |
| 55 nM |  | CCc1nnc(SCC(=O)Nc2nnc(-c3ccc(OC(C)C)cc3)s2)n1CC [Example 34, 2-[(4,5-diethyl-4H-1,2,4-triazol-3-yl)sulfanyl]-N-[5-(4-isopropoxyphenyl)-1,3,4-thiadiazol-2-yl]acetamide] |
| 54 nM |  | CCc1nnc(SCC(=O)Nc2nnc(-c3ccc(Cl)cc3)s2)n1CC [Example 35, N-[5-(4-chlorophenyl)-1,3,4-thiadiazol-2-yl]-2-[(4,5-diethyl-4H-1,2,4-triazol-3-yl)sulfanyl]acetamide] |
| 51 nM | 7.3 | CCc1nnc(SCC(=O)Nc2nnc(-c3ccc(OC)cc3)s2)n1C1CC1 [Example 36, 2-[(4-cyclopropyl-5-ethyl-4H-1,2,4-triazol-3-yl)sulfanyl]-N-[5-(4-methoxyphenyl)-1,3,4-thiadiazol-2-yl]acetamide] |
| 132 nM | 6.9 | CCn1c(Cc2cccc(F)c2)nnc1SCC(=O)Nc1nnc(-c2ccc(OC)cc2)s1 [Example 37, 2-[(4-ethyl-5-(3-fluorobenzyl)-4H-1,2,4-triazol-3-yl)sulfanyl]-N-[5-(4-methoxyphenyl)-1,3,4-thiadiazol-2-yl]acetamide] |
| 81 nM | 7.1 | CCn1c(SCC(=O)Nc2nnc(-c3ccc(O)cc3)s2)nnc1C1CC1 [Example 38, 2-[(5-cyclopropyl-4-ethyl-4H-1,2,4-triazol-3-yl)sulfanyl]-N-[5-(4-hydroxyphenyl)-1,3,4-thiadiazol-2-yl]acetamide] |
| 135 nM |  | CCc1nnc(SCC(=O)Nc2nnc(-c3ccc(S(C)(=O)=O)cc3)s2)n1C1CC1 [Example 39, 2-[(4-cyclopropyl-5-ethyl-4H-1,2,4-triazol-3-yl)sulfanyl]-N-[5-(4-(methylsulfonyl)phenyl)-1,3,4-thiadiazol-2-yl]acetamide] |
| 168 nM |  | CCc1nnc(SCC(=O)Nc2nnc(-c3ccc(OC)cc3)s2)n1CCCO [Example 40, 2-[(5-ethyl-4-(3-hydroxypropyl)-4H-1,2,4-triazol-3-yl)sulfanyl]-N-[5-(4-methoxyphenyl)-1,3,4-thiadiazol-2-yl]acetamide] |
| 490 nM | 6.3 | CCc1nnc(SCC(=O)Nc2nnc(-c3ccc(S(C)(=O)=O)cc3)s2)n1C [Example 41, 2-[(5-ethyl-4-methyl-4H-1,2,4-triazol-3-yl)sulfanyl]-N-[5-(4-(methylsulfonyl)phenyl)-1,3,4-thiadiazol-2-yl]acetamide] |
| 76 nM | 7.1 | CCc1nnc(SCC(=O)Nc2nnc(-c3ccc(S(C)(=O)=O)cc3)s2)n1C(C)C [Example 42, 2-[(5-ethyl-4-isopropyl-4H-1,2,4-triazol-3-yl)sulfanyl]-N-[5-(4-(methylsulfonyl)phenyl)-1,3,4-thiadiazol-2-yl]acetamide] |
| 52 nM |  | CCn1c(SCC(=O)Nc2nnc(-c3ccc(OCCOC)cc3)s2)nnc1C1CC1 [Example 43, 2-[(5-cyclopropyl-4-ethyl-4H-1,2,4-triazol-3-yl)sulfanyl]-N-[5-(4-(2-methoxyethoxy)phenyl)-1,3,4-thiadiazol-2-yl]acetamide] |

— patent publication US10730865B2, “Compounds for modulating aquaporins” (APOGLYX AB, priority 2016, dated 2020)
